Patent US11981643B1, “Oxoimidazolidine derivatives as anti-tubercular agents” (priority 2023, dated 2024)
Converted amounts (≈) assume the structure as drawn.

test system: MDR strain of MTB; test: microbe, parasite or virus in culture; assay type: cell-based; details: Mycobacterium tuberculosis, 192 h, read-out: Anti-tubercular activity against Mycobacterium tuberculosis, MDR (minimum inhibitory concentration, MIC)

| SMILES | MIC |
| --- | --- |
| CN1C(=Cc2ccc([N+](=O)[O-])cc2)C(=O)N/C1=N\C(=S)Nc1cccc(Cl)c1 (stereo in doubt) [Compound 4q, 1-(3-Chlorophenyl)-3-[(2E,5Z)-1-methyl-5-(4-nitrobenzylidene)-4-oxoimidazolidin-2-ylidene]thiourea] | 32 µg/mL (≈ 76.9 µM) |
| CN1C(=Cc2ccc(-c3ccccc3[N+](=O)[O-])o2)C(=O)N/C1=N\C(=S)Nc1ccc(F)cc1 (stereo in doubt) [Compound 4v, 1-(4-Fluorophenyl)-3-[(2E,5Z)-1-methyl-5-{[5-(2-nitrophenyl)furan-2-yl]methylidene}-4-oxoimidazolidin-2-ylidene]thiourea] | > 32 µg/mL |
| CN1/C(=C\c2ccc(Br)o2)C(=O)N/C1=N\C(=O)Nc1cccc(F)c1 [Compound 4g, 1-{(2E,5Z)-5-[(5-Bromofuran-2-yl)methylidene]-1-methyl-4-oxoimidazolidin-2-ylidene}-3-(3-fluorophenyl)urea] | 32 µg/mL (≈ 78.6 µM) |
